Experiments:
[1] = test system: WNV; conditions: Morrey et al. 2002; read-out: EC50 derived from the standard viral infection assay; cited from earlier work
[2] = test system: lineage I WNV replicon (Rluc/NeoRep) RNA; experiment: Replicon RNA copy number by real-time RT-PCR in Rluc/NeoRep reporting cell line; assay type: cell-based; conditions: West Nile virus, 24 h, read-out: EC50 derived from the replicon RNA copy numbers
Method: (§1) To test the stability of the replicon-containing cell lines, cells at various time points post-selection (p.s.) were examined for viral and Rluc protein expression, and for replicon RNA copy numbers. […] (lower two panels in FIG. 18B). […] (ii) Stable and high levels of Rluc activity were detected from cells collected on days 20, 50, and 80 p.s. (FIG. 18C). For Rluc assay, 10^6 cells were lysed in 500 microliters of lysis buffer; 20 microliters of lysate was measured for Rluc activity according to the manufacturer (Promega) using a Lumat luminometer (EG & G, Berthold, Australia). Approximately 8×10^6 light units were consistently detected from 4×10^4 cells, about 200 light units per cell. (iii) A consistent level of replicon RNA was maintained in cells at 20, 50, and 80 days p.s. (FIG. 18D). Real-time RT-PCR, targeting the viral NS1 region, was used to quantify replicon RNA as previously reported (Shi, P. Y., et al. 2002. Virology 296:219-233; Shi, P. Y., et al. 2002. J. Virol. 76:5847-56; Lo, M. K., et al. 2003. J. Virology 77, 12901-12906). Total RNA extracted from 10^6 cells was eluted in 50 microliters of RNase-free water using RNeasy kits (Qiagen); 5 microliters of RNA was quantified by real-time RT-PCR, using in vitro trancribed RNA as standards. About 10^9 replicon molecules in 10^5 cells was estimated, or about 10^4 replicon RNAs per cell.
To verify that the reduction in Rluc activity reflected the compound inhibition of viral RNA replication, RT-PCR was performed. After 24 h of compound treatment, cells from the 12-well plates were assayed for RNA amounts as described above, except that 12 μl from the 50 μl extracted RNA was used in the real-time RT-PCR assay. […] The relative potencies of the three tested compounds are also similar to those observed with the Rluc results, in the decreasing order of mycophenolic acid, 6-azauridine, and ribavirin (compare FIGS. 19A to 19B). […]

[3] = test system: lineage I WNV replicon (Rluc/NeoRep); experiment: Rluc activity in BHK-21 reporting cell line containing WNV Rluc/NeoRep replicon; assay type: cell-based; conditions: West Nile virus, 24 h compound treatment, 12-well plates, estimated from Rluc curves, read-out: EC50 (compound concentration required to inhibit 50% of the Rluc activity)
Method: as §1
To examine whether the reporting cell line can be used as an antiviral assay, three known WNV inhibitors were tested in the cells: 6-azauridine, an inhibitor of orotidine monophosphate decarboxylase, and mycophenolic acid and ribavirin, inhibitors of inosine monophosphate dehydrogenase (De Clercq, E. 1993. Advance Virus Res. 42:1-55; Jordan, I., et al. 2000. J. Infect. Dis. 182:1214-7; Morrey, J., et al. 2002. Antiviral Res. 55:107-116). Ribavirin has also been reported to function as a mutagen, causing lethal levels of mutagenesis within the virus population (Crotty, S., et al. 2000. Nature Med. 6:1375-9). All three compounds were purchased from Sigma (St. Louis, Mo.). Initially, the assay was performed in 12-well plates. […]

Compound | EC50 [1] [µM] | EC50 [2] [µM] | EC50 [3] [µM]
NC(=O)c1ncn([C@@H]2O[C@H](CO)[C@@H](O)[C@H]2O)n1 [ribavirin] | 178 | > 300 | 140
COc1c(C)c2c(c(O)c1C/C=C(\C)CCC(=O)O)C(=O)OC2 [mycophenolic acid] | 8.4 | ~100 | 5.4
O=c1cnn([C@@H]2O[C@H](CO)[C@@H](O)[C@H]2O)c(=O)[nH]1 [6-azauridine] | 6.1 | > 300 | 11
